Data reported in ChEMBL document CHEMBL3991601, “The target landscape of clinical kinase drugs” (Science, 2017).
Activity calls are given as the source filed them. Cut-off read from the data, not from the text of the source, for most assays here: actives have a measured Kd and inactives only a lower limit.

How the values were obtained:
[1] = target: Choline-phosphate cytidylyltransferase A (Homo sapiens, UniProt P49585)
[2] = target: Hepatocyte growth factor receptor (Homo sapiens, UniProt P08581)
Sequence of Hepatocyte growth factor receptor (P08581 whole entry): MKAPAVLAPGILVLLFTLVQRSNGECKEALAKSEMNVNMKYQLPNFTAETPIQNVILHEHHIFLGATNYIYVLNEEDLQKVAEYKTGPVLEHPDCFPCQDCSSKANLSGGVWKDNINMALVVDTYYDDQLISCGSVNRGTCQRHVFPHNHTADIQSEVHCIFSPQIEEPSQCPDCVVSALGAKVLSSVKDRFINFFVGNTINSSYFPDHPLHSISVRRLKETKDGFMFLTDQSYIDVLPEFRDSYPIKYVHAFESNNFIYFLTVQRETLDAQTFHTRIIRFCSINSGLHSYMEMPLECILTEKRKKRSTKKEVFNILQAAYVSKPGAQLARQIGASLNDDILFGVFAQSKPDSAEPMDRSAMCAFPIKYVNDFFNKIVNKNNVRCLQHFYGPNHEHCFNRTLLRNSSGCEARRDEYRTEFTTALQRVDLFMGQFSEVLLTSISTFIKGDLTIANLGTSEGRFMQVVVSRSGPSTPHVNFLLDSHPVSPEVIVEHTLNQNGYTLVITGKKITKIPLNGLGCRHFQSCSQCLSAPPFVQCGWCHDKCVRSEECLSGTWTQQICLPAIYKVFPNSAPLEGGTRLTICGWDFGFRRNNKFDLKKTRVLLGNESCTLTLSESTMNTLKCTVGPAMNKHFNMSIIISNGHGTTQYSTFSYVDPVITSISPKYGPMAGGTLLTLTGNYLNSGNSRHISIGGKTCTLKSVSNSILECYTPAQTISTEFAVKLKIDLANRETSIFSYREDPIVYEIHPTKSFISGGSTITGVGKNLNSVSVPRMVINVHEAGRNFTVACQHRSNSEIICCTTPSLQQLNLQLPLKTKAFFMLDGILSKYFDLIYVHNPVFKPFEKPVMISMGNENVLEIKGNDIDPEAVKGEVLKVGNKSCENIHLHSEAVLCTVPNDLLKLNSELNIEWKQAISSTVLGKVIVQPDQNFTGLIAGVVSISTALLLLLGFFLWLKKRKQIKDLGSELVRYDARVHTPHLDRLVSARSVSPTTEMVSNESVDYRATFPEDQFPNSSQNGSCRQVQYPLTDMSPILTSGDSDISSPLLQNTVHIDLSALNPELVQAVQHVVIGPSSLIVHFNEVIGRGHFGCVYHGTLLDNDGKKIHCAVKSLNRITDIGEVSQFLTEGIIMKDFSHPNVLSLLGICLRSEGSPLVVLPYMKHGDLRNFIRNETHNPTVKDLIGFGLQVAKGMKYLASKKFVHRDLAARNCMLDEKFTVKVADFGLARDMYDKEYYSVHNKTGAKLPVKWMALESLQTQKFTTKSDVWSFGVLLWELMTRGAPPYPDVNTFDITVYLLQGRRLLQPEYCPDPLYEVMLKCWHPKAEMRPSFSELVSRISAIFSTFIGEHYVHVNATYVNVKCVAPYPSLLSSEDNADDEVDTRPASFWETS

[3] = target: T1, Thyroid hormone receptor-associated protein 3 (Homo sapiens, UniProt Q9Y2W1)
T1 sequence (Q9Y2W1 whole entry): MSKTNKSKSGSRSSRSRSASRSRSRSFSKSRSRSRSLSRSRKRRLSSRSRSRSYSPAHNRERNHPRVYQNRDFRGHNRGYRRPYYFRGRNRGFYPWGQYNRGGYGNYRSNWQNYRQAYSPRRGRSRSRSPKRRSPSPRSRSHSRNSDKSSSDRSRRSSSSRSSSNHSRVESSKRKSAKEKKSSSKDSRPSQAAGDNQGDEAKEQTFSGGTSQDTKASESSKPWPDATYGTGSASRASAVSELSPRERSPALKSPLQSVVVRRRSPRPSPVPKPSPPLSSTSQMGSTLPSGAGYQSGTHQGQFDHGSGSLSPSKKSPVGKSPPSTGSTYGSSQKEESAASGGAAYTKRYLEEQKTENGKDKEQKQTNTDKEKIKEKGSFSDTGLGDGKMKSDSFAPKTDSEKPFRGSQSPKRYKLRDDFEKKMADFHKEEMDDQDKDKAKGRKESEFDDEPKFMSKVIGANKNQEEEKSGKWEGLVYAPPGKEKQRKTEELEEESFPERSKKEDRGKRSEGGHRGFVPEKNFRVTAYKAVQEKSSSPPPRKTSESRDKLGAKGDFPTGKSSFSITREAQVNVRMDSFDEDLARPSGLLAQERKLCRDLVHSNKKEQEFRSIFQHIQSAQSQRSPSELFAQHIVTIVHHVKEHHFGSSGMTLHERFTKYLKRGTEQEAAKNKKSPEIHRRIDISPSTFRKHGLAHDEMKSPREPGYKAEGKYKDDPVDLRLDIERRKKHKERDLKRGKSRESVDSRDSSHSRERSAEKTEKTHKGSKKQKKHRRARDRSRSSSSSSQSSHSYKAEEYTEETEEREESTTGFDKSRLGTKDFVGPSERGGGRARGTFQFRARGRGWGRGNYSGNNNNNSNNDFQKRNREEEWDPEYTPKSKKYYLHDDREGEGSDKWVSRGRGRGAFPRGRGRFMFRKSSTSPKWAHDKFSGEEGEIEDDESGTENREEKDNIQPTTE

[4] = target: Cyclin-dependent kinase 17 (Homo sapiens, UniProt Q00537)
Sequence of Cyclin-dependent kinase 17 (Q00537 whole entry): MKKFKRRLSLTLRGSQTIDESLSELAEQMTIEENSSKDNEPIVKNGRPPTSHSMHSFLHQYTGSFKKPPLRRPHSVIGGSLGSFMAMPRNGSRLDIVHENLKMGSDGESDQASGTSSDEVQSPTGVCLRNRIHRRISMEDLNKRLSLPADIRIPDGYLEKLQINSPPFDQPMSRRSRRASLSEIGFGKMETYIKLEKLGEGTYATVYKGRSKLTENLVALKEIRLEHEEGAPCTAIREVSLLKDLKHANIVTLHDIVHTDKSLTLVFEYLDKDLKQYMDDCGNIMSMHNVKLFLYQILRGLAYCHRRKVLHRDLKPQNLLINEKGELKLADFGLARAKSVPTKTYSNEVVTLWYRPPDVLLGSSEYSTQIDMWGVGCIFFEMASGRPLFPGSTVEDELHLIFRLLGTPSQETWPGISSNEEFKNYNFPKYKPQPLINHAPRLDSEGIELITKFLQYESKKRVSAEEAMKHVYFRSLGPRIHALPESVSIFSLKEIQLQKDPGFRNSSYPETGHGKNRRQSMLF

[5] = target: Epidermal growth factor receptor (Homo sapiens, UniProt P00533)
Sequence of Epidermal growth factor receptor (P00533 whole entry): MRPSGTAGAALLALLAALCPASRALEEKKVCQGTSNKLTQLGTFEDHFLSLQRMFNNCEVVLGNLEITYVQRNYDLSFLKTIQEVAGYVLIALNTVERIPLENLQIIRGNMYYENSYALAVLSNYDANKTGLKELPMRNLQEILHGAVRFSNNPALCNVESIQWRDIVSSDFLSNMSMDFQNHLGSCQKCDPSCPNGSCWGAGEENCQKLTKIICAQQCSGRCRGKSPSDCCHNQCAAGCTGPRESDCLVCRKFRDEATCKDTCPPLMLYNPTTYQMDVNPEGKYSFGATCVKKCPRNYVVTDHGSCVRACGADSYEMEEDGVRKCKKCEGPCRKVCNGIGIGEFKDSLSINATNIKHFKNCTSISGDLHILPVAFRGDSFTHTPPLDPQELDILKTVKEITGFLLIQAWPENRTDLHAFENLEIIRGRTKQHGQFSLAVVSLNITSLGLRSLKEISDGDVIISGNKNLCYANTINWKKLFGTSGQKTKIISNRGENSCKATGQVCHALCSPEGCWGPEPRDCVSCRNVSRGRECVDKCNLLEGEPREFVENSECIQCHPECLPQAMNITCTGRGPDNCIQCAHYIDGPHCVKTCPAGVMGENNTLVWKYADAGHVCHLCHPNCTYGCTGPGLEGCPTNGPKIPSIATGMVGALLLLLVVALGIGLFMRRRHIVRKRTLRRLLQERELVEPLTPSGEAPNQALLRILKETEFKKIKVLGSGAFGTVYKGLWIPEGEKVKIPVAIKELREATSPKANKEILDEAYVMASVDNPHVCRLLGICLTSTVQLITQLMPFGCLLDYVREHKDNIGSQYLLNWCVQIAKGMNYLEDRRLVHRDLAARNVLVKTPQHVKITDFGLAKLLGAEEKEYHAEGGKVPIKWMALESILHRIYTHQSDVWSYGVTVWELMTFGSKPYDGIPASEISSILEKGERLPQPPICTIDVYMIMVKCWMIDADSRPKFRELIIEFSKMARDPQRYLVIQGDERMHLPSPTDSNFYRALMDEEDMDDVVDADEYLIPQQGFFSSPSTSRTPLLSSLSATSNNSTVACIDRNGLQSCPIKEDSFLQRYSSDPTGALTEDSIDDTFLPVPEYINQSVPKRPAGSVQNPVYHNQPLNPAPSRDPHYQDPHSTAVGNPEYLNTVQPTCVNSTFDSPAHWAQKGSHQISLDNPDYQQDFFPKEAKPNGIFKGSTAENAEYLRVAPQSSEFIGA

[6] = target: T2, Dual specificity protein kinase TTK (Homo sapiens, UniProt P33981)
T2 sequence (P33981 whole entry): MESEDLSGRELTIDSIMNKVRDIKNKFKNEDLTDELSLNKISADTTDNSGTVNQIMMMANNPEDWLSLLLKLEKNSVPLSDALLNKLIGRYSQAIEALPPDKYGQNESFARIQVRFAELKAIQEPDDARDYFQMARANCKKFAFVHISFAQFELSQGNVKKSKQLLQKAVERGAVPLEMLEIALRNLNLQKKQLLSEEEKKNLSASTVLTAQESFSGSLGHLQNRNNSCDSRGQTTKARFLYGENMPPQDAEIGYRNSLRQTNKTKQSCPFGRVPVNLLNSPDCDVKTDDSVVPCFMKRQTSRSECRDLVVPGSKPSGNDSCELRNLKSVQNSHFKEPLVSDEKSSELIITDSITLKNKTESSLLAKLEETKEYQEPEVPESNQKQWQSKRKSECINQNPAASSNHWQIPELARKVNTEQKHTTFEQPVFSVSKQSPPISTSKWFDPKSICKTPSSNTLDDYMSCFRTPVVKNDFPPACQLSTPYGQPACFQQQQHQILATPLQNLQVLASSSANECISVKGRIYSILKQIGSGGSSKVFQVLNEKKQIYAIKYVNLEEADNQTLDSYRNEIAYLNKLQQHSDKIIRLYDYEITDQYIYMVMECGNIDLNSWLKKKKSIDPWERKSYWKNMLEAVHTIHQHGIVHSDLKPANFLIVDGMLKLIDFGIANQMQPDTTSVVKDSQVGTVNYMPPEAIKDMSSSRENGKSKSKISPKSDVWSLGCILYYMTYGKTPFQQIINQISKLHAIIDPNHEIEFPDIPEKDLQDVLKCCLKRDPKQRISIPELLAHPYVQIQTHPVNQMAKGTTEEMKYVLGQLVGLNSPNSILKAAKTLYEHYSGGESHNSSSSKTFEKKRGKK

[7] = target: Glycogen synthase kinase-3 beta (Homo sapiens, UniProt P49841)
Sequence of Glycogen synthase kinase-3 beta (P49841 whole entry): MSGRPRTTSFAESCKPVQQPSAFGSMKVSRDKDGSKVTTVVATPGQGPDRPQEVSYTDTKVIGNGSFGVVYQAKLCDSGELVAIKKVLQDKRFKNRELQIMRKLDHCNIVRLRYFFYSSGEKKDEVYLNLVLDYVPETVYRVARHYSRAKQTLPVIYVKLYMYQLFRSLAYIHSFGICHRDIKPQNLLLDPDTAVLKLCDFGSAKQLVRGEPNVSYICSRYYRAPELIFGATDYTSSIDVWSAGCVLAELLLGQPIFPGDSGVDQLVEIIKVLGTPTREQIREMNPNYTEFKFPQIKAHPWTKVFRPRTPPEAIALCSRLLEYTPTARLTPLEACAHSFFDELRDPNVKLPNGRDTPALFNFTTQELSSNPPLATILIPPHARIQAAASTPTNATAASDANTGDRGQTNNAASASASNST
Note: in the data inactive means no Kd found up to 30 µM.

Sequence of Choline-phosphate cytidylyltransferase A (P49585 whole entry): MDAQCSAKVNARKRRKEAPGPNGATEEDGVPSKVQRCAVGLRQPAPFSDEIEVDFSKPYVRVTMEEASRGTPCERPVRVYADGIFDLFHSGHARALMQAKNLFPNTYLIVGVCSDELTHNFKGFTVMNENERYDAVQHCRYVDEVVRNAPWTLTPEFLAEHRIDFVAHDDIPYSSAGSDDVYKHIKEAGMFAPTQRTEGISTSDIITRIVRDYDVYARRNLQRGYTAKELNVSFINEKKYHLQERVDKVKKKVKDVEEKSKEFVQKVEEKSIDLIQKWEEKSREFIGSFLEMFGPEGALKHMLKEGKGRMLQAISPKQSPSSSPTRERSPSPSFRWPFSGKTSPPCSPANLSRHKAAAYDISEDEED

| Kd [1] | Kd [2] | Kd [3] | Kd [4] | Kd [5] | Kd [6] | Kd [7] | SMILES |
| --- | --- | --- | --- | --- | --- | --- | --- |
| > 30 µM (inactive) | > 30 µM (inactive) | > 30 µM (inactive) | > 30 µM (inactive) | > 30 µM (inactive) | > 30 µM (inactive) | > 30 µM (inactive) | O=C(NC[C@H](O)CO)c1ccncc1Nc1ccc(I)cc1F [PIMASERTIB] |
| > 30 µM (inactive) | > 30 µM (inactive) | > 30 µM (inactive) | > 30 µM (inactive) | > 30 µM (inactive) | > 30 µM (inactive) | > 30 µM (inactive) | O=C(Nc1ccc(OC(F)(F)F)cc1)c1sccc1NCc1ccnc2ccccc12 [OSI-930] |
| > 30 µM (inactive) | > 30 µM (inactive) | > 30 µM (inactive) | > 30 µM (inactive) | > 30 µM (inactive) | > 30 µM (inactive) | > 30 µM (inactive) | O=C(NOC[C@H](O)CO)c1ccc(F)c(F)c1Nc1ccc(I)cc1F [MIRDAMETINIB] |
| > 30 µM (inactive) | > 30 µM (inactive) | – | > 30 µM (inactive) | > 30 µM (inactive) | > 30 µM (inactive) | > 30 µM (inactive) | COc1cc(Nc2ncc(F)c(Nc3ccc4c(n3)N(COP(=O)(O)O)C(=O)C(C)(C)O4)n2)cc(OC)c1OC [FOSTAMATINIB] |
| > 30 µM (inactive) | – | – | – | – | – | – | COc1cc2c(Oc3ccc4[nH]c(C)cc4c3F)ncnc2cc1OCCCN1CCCC1 [CEDIRANIB] |
| > 30 µM (inactive) | > 30 µM (inactive) | – | > 30 µM (inactive) | > 30 µM (inactive) | > 30 µM (inactive) | > 30 µM (inactive) | COc1ccc(-c2ccc3ncc4c(c3c2)n(-c2ccc(N3CCNCC3)c(C(F)(F)F)c2)c(=O)n4C)cn1 [BGT-226 FREE BASE] |
| > 30 µM (inactive) | > 30 µM (inactive) | > 30 µM (inactive) | > 30 µM (inactive) | > 30 µM (inactive) | – | > 30 µM (inactive) | S=C(NCc1ccc2c(c1)OCO2)N1CCN(c2ncnc3c2oc2ccccc23)CC1 [AMUVATINIB] |
| > 30 µM (inactive) | > 30 µM (inactive) | > 30 µM (inactive) | > 30 µM (inactive) | > 30 µM (inactive) | – | > 30 µM (inactive) | Cc1cc(Nc2nc(N[C@@H](C)c3ncc(F)cn3)ncc2Cl)n[nH]1 [AZD-1480] |
| > 30 µM (inactive) | > 30 µM (inactive) | > 30 µM (inactive) | – | > 30 µM (inactive) | > 30 µM (inactive) | – | CCN1CCN(Cc2ccc(Nc3ncc(F)c(-c4cc(F)c5nc(C)n(C(C)C)c5c4)n3)nc2)CC1 [ABEMACICLIB] |
| > 30 µM (inactive) | > 30 µM (inactive) | > 30 µM (inactive) | > 30 µM (inactive) | – | > 30 µM (inactive) | > 30 µM (inactive) | CCc1cc2c(cc1N1CCC(N3CCOCC3)CC1)C(C)(C)c1[nH]c3cc(C#N)ccc3c1C2=O [ALECTINIB] |
| > 30 µM (inactive) | – | – | – | – | – | – | CC1(C)CNc2cc(NC(=O)c3cccnc3NCc3ccncc3)ccc21 [MOTESANIB] |
| > 30 µM (inactive) | – | > 30 µM (inactive) | – | – | – | – | Cn1cnc2c(F)c(Nc3ccc(Br)cc3Cl)c(C(=O)NOCCO)cc21 [SELUMETINIB] |
| > 30 µM (inactive) | > 30 µM (inactive) | > 30 µM (inactive) | > 30 µM (inactive) | 10.1 µM (active) | – | > 30 µM (inactive) | C#Cc1cccc(Nc2ncnc3cc4c(cc23)OCCOCCOCCO4)c1 [ICOTINIB] |
| > 30 µM (inactive) | 0.028 µM (active) | > 30 µM (inactive) | > 30 µM (inactive) | > 30 µM (inactive) | – | > 30 µM (inactive) | COc1ccc2c(OCc3nnc4ccc(-c5ccccc5)nn34)ccnc2c1 [AMG-208] |
| > 30 µM (inactive) | > 30 µM (inactive) | > 30 µM (inactive) | > 30 µM (inactive) | > 30 µM (inactive) | > 30 µM (inactive) | > 30 µM (inactive) | CNC(=O)c1cccc(-c2ccc3c(N4CCOC[C@@H]4C)nc(N4CCOC[C@@H]4C)nc3n2)c1 [VISTUSERTIB] |
| > 30 µM (inactive) | – | > 30 µM (inactive) | > 30 µM (inactive) | > 30 µM (inactive) | > 30 µM (inactive) | > 30 µM (inactive) | Cc1ccc(C(=O)Nc2ccc(Oc3cc4cnn(C)c4cc3-c3cn[nH]c3)c(F)c2)c(=O)n1-c1ccc(F)cc1 [MERESTINIB] |
| > 30 µM (inactive) | – | > 30 µM (inactive) | > 30 µM (inactive) | > 30 µM (inactive) | > 30 µM (inactive) | – | Cn1c(=O)n(-c2ccc(C(C)(C)C#N)cc2)c2c3cc(-c4cnc5ccccc5c4)ccc3ncc21 [DACTOLISIB] |
| – | > 30 µM (inactive) | > 30 µM (inactive) | > 30 µM (inactive) | > 30 µM (inactive) | > 30 µM (inactive) | > 30 µM (inactive) | Cc1cc(-c2cc(OC(=O)c3ccccc3)ccc2Cl)cc2nnc(Nc3ccc(OCCN4CCCC4)cc3)nc12 [TG100-801] |
| > 30 µM (inactive) | – | > 30 µM (inactive) | – | > 30 µM (inactive) | – | > 30 µM (inactive) | COc1cccc2cc(-c3nc([C@H]4CC[C@H](C(=O)O)CC4)n4ncnc(N)c34)[nH]c12 [OSI-027] |
| > 30 µM (inactive) | – | > 30 µM (inactive) | – | – | – | – | CN(C)C/C=C/C(=O)Nc1cc2c(Nc3ccc(F)c(Cl)c3)ncnc2cc1O[C@H]1CCOC1 [AFATINIB] |
| > 30 µM (inactive) | > 30 µM (inactive) | > 30 µM (inactive) | > 30 µM (inactive) | > 30 µM (inactive) | > 30 µM (inactive) | – | c1cc(OCCN2CCCCC2)cc(-c2n[nH]c3ccc(-c4nc[nH]n4)cc23)c1 [CC-401] |

| SMILES | Kd [1] | Kd [2] | Kd [3] | Kd [4] | Kd [5] | Kd [6] | Kd [7] |
| --- | --- | --- | --- | --- | --- | --- | --- |
| CC(C)CC(=O)Nc1[nH]nc2c1CN(C(=O)C1CCN(C)CC1)C2(C)C [PHA-793887] | > 30 µM (inactive) | – | – | – | – | – | 0.012 µM (active) |
| C[C@]1(O)C[C@@H](c2nc(-c3ccc4ccc(-c5ccccc5)nc4c3)c3c(N)nccn32)C1 [LINSITINIB] | > 30 µM (inactive) | – | > 30 µM (inactive) | > 30 µM (inactive) | – | > 30 µM (inactive) | – |
| O=S(=O)(c1cccc2cnccc12)N1CCCNCC1 [FASUDIL] | > 30 µM (inactive) | – | > 30 µM (inactive) | > 30 µM (inactive) | – | > 30 µM (inactive) | – |
| Cc1c(Cn2c(C)nc3c(C(=O)O)cc(N4CCOCC4)cc32)cccc1C(F)(F)F [GSK-2636771] | > 30 µM (inactive) | > 30 µM (inactive) | > 30 µM (inactive) | > 30 µM (inactive) | > 30 µM (inactive) | > 30 µM (inactive) | > 30 µM (inactive) |
| NC[C@@](O)(c1ccc(Cl)cc1)c1ccc(-c2cn[nH]c2)cc1 [AT-13148] | > 30 µM (inactive) | > 30 µM (inactive) | > 30 µM (inactive) | – | > 30 µM (inactive) | – | > 30 µM (inactive) |
| CNC(=O)c1ccc(Nc2ncc(C(F)(F)F)c(NCc3nccnc3N(C)S(C)(=O)=O)n2)cc1 [DEFACTINIB] | – | > 30 µM (inactive) | > 30 µM (inactive) | > 30 µM (inactive) | > 30 µM (inactive) | > 30 µM (inactive) | 1.32 µM (active) |
